In US11911393B2, “Non-catalytic substrate-selective p38alpha-specific MAPK inhibitors with endothelial-stabilizing and anti-inflammatory activity, and methods of use thereof” (University of Maryland, Baltimore, priority 2016, dated 2024):

Tested on: TNFα-induced gene expression in HMVECLs
Assay: RNASeq of TNFα-induced gene expression
Assay type: cell-based, human
Conditions: 100 μM UM101, 10 μM SB203580

C[S+]([O-])c1ccc(-c2nc(-c3ccncc3)c(-c3ccc(F)cc3)[nH]2)cc1 (stereo not shown) [SB203580, reference compound]
5: bin (gene expression response pattern): AC073850.6 (HMVECLs, TNFα) | bin (gene expression response pattern): AGPAT9 (HMVECLs, TNFα) | bin (gene expression response pattern): ARHGAP18 (HMVECLs, TNFα) | bin (gene expression response pattern): ARHGEF28 (HMVECLs, TNFα) | bin (gene expression response pattern): ARL11 (HMVECLs, TNFα) | bin (gene expression response pattern): BCL2L10 (HMVECLs, TNFα) | bin (gene expression response pattern): BMF (HMVECLs, TNFα) | bin (gene expression response pattern): C2CD4B (HMVECLs, TNFα) | bin (gene expression response pattern): C19orf35 (HMVECLs, TNFα) | bin (gene expression response pattern): CELF2-AS1 (HMVECLs, TNFα) | bin (gene expression response pattern): CH25H (HMVECLs, TNFα) | bin (gene expression response pattern): CTA-221G9.12 (HMVECLs, TNFα) | bin (gene expression response pattern): CTB-152G17.6 (HMVECLs, TNFα) | bin (gene expression response pattern): CXCL3 (HMVECLs, TNFα) | bin (gene expression response pattern): EPHX4 (HMVECLs, TNFα) | bin (gene expression response pattern): FAM84A (HMVECLs, TNFα) | bin (gene expression response pattern): FBX032 (HMVECLs, TNFα) | bin (gene expression response pattern): FHL2 (HMVECLs, TNFα) | bin (gene expression response pattern): GFOD1 (HMVECLs, TNFα) | bin (gene expression response pattern): GRPEL2 (HMVECLs, TNFα) | bin (gene expression response pattern): HEY1 (HMVECLs, TNFα) | bin (gene expression response pattern): HMSD (HMVECLs, TNFα) | bin (gene expression response pattern): HRCT1 (HMVECLs, TNFα) | bin (gene expression response pattern): HTR1D (HMVECLs, TNFα) | bin (gene expression response pattern): IBA57-AS1 (HMVECLs, TNFα) | bin (gene expression response pattern): ID1 (HMVECLs, TNFα) | bin (gene expression response pattern): INPP4B (HMVECLs, TNFα) | bin (gene expression response pattern): JUNB (HMVECLs, TNFα) | bin (gene expression response pattern): KDM7A (HMVECLs, TNFα) | bin (gene expression response pattern): KIT (HMVECLs, TNFα) | bin (gene expression response pattern): KLF15 (HMVECLs, TNFα) | bin (gene expression response pattern): KSR2 (HMVECLs, TNFα) | bin (gene expression response pattern): LMCD1 (HMVECLs, TNFα) | bin (gene expression response pattern): LONRF3 (HMVECLs, TNFα) | bin (gene expression response pattern): LRFN1 (HMVECLs, TNFα) | bin (gene expression response pattern): LYL1 (HMVECLs, TNFα)
7: bin (gene expression response pattern) (AC003092.1 (ENSG00000236453)) | bin (gene expression response pattern) (AC010642.2 (ENSG00000269794)) | bin (gene expression response pattern) (ADAP1 (ENSG00000105963)) | bin (gene expression response pattern) (ADM2 (ENSG00000128165)) | bin (gene expression response pattern) (APOBEC3G (ENSG00000239713)) | bin (gene expression response pattern) (APOL2 (ENSG00000128335)) | bin (gene expression response pattern) (APOL6 (ENSG00000221963)) | bin (gene expression response pattern) (C1QTNF1 (ENSG00000173918)) | bin (gene expression response pattern) (C6orf58 (ENSG00000184530)) | bin (gene expression response pattern) (C11orf88 (ENSG00000183644)) | bin (gene expression response pattern) (CCL1 (ENSG00000108702)) | bin (gene expression response pattern) (CD40 (ENSG00000101017)) | bin (gene expression response pattern) (CDON (ENSG00000064309)) | bin (gene expression response pattern) (CLEC2D (ENSG00000069493)) | bin (gene expression response pattern) (CTC-231O11.1 (ENSG00000253522)) | bin (gene expression response pattern) (CTD-2369P2.8 (ENSG00000267607)) | bin (gene expression response pattern) (CX3CL1 (ENSG00000006210)) | bin (gene expression response pattern) (DRD4 (ENSG00000069696)) | bin (gene expression response pattern) (EGLN3 (ENSG00000129521)) | bin (gene expression response pattern) (ENKUR (ENSG00000151023)) | bin (gene expression response pattern) (ETV3L (ENSG00000253831)) | bin (gene expression response pattern) (GCH1 (ENSG00000131979)) | bin (gene expression response pattern) (GPR37L1 (ENSG00000170075)) | bin (gene expression response pattern) (GPR182 (ENSG00000166856)) | bin (gene expression response pattern) (HELZ2 (ENSG00000130589))
1: bin (gene expression response pattern): BAMBI (HMVECLs, TNFα) | bin (gene expression response pattern): DLL4 (HMVECLs, TNFα) | bin (gene expression response pattern): ETV1 (HMVECLs, TNFα) | bin (gene expression response pattern): FLRT3 (HMVECLs, TNFα) | bin (gene expression response pattern): KCNJ12 (HMVECLs, TNFα) | bin (gene expression response pattern): KIAA1211L (HMVECLs, TNFα)
2: bin (gene expression response pattern): GPR68 (HMVECLs, TNFα) | bin (gene expression response pattern): LRFN5 (HMVECLs, TNFα)
4: bin (gene expression response pattern): FP236383.10 (HMVECLs, TNFα)
8: bin (gene expression response pattern) (AC116366.6 (ENSG00000234290)) | bin (gene expression response pattern) (ANKRD55 (ENSG00000164512)) | bin (gene expression response pattern) (BPGM (ENSG00000172331)) | bin (gene expression response pattern) (C8orf4 (ENSG00000176907)) | bin (gene expression response pattern) (C15orf54 (ENSG00000175746)) | bin (gene expression response pattern) (CD69 (ENSG00000110848)) | bin (gene expression response pattern) (CSF2 (ENSG00000164400)) | bin (gene expression response pattern) (EBI3 (ENSG00000105246)) | bin (gene expression response pattern) (ERVFRD-1 (ENSG00000244476)) | bin (gene expression response pattern) (F2RL3 (ENSG00000127533)) | bin (gene expression response pattern) (FAM101A (ENSG00000178882)) | bin (gene expression response pattern) (HAND1 (ENSG00000113196)) | bin (gene expression response pattern) (HAS2 (ENSG00000170961)) | bin (gene expression response pattern) (HEPACAM (ENSG00000165478))
3: bin (gene expression response pattern): CCL17 (HMVECLs, TNFα) | bin (gene expression response pattern): CD200 (HMVECLs, TNFα) | bin (gene expression response pattern): CD207 (HMVECLs, TNFα) | bin (gene expression response pattern): CTA-212A2.1 (HMVECLs, TNFα) | bin (gene expression response pattern): CXCL5 (HMVECLs, TNFα) | bin (gene expression response pattern): CXCL10 (HMVECLs, TNFα) | bin (gene expression response pattern): CXCL11 (HMVECLs, TNFα) | bin (gene expression response pattern): ELOVL7 (HMVECLs, TNFα) | bin (gene expression response pattern): EXOC3L4 (HMVECLs, TNFα) | bin (gene expression response pattern): GBP1P1 (HMVECLs, TNFα) | bin (gene expression response pattern): GBP4 (HMVECLs, TNFα) | bin (gene expression response pattern): GPR88 (HMVECLs, TNFα) | bin (gene expression response pattern): HAS3 (HMVECLs, TNFα) | bin (gene expression response pattern): IDO1 (HMVECLs, TNFα) | bin (gene expression response pattern): IL1B (HMVECLs, TNFα) | bin (gene expression response pattern): LINC00677 (HMVECLs, TNFα)
